Data as given in ChEMBL document CHEMBL5661980, “Discovery of OSI-906: a selective and orally efficacious dual inhibitor of the IGF-1 receptor and insulin receptor” (Future Med Chem, 2009).

Key:
[1] = target: Cytochrome P450 3A4 (Homo sapiens, UniProt P08684); assay: Inhibition of CYP3A4 (unknown origin) using luciferin as substrate in presence of NADPH generating system incubated for 20 mins by luminescent method; type: ADME
[2] = target: T1, Cytochrome P450 1A2 (Homo sapiens, UniProt P05177); assay: Inhibition of CYP1A2 (unknown origin) in presence of NADPH generating system incubated for 20 mins by luminescent method; type: ADME
T1 sequence (P05177 whole entry): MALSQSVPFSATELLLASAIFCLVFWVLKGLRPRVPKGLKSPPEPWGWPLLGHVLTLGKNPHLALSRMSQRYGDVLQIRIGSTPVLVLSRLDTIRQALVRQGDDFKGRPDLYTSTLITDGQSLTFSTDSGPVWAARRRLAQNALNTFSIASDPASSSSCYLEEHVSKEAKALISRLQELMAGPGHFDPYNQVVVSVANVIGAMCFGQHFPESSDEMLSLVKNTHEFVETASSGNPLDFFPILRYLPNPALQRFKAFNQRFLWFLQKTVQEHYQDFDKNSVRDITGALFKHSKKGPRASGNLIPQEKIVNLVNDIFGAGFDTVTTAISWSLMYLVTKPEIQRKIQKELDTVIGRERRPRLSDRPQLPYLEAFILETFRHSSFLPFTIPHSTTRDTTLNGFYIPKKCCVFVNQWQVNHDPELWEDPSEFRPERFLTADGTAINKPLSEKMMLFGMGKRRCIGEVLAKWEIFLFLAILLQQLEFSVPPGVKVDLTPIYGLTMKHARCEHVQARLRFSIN

[3] = Clearance in CD-1 mouse measured at 5 mg/kg, iv for 1 to 24 hrs by HPLC-MS/MS analysis; type: ADME, organism-based; conditions: in vivo, time 1-24 hrs
[4] = Volume of distribution at steady state in CD-1 mouse measured at 5 mg/kg, iv for 1 to 24 hrs by HPLC-MS/MS analysis; type: ADME, organism-based; conditions: in vivo, time 1-24 hrs, read-out: Vdss
[5] = Elimination half life in CD-1 mouse measured at 5 mg/kg, iv for 1 to 24 hrs by HPLC-MS/MS analysis; type: ADME, organism-based; conditions: in vivo, time 1-24 hrs, read-out: beta t1/2 (converted)
[6] = AUC (0 to infinity) in Sprague-Dawley rat measured at 5 mg/kg, iv for 1 to 24 hrs by HPLC-MS/MS analysis; type: ADME, organism-based; conditions: in vivo, time 1-24 hrs
[7] = Elimination half life in Beagle dog measured at 2.5 mg/kg, iv for 1 to 24 hrs by HPLC-MS/MS analysis; type: ADME, organism-based, Canis lupus familiaris; conditions: in vivo, time 1-24 hrs, read-out: beta t1/2 (converted)
[8] = Cmax in Sprague-Dawley rat measured at 100 mg/kg, po for 1 to 24 hrs by HPLC-MS/MS analysis; type: ADME, organism-based; conditions: in vivo, time 1-24 hrs
[9] = tested on: NIH3T3; assay: Antitumor activity against mouse 3T3 cells allografted in athymic nu/nu CD-1 mouse assessed as tumor growth inhibition at 75 mg/kg, po for 12 days relative to control; type: functional; conditions: NIH3T3, 288 h, time 12 day, read-out: TGI
[10] = Plasma concentration in CD-1 mouse measured at 75 mg/kg, po for 24 hrs by HPLC-MS/MS analysis; type: ADME, organism-based

Chain of Cytochrome P450 3A4 (P08684 whole entry): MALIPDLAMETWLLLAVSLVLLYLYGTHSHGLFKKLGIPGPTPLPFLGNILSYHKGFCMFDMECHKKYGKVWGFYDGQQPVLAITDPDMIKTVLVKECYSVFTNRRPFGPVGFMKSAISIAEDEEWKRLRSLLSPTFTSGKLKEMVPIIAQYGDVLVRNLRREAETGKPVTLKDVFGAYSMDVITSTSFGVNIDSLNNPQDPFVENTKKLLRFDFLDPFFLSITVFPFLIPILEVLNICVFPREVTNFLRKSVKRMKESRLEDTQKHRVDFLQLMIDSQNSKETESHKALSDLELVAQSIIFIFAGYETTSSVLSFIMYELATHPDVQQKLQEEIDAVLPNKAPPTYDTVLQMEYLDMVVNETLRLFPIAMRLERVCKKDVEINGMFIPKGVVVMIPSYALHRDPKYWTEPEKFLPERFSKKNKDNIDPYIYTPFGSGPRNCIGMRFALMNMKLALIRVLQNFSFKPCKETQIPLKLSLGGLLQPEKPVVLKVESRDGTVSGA

IC50 [1]: > 10 µM
IC50 [2]: > 10 µM
clearance [3]: 12 mL/min/kg
Vd [4]: 2.05 L/kg
half-life [5]: 2.14 h
AUC(0-inf) [6]: 23100 ng·h/mL
half-life [7]: 1.18 h
Cmax [8]: 34.6 µM
concentration at 24 h [10]: 2.92 µM
SMILES: C[C@]1(O)C[C@@H](c2nc(-c3ccc4ccc(-c5ccccc5)nc4c3)c3c(N)nccn32)C1 [LINSITINIB]
inhibition in vivo at 75 mg/kg [9]: 100%
